From paper PMC6154586 (Molecules : A Journal of Synthetic Chemistry and Natural …, 2017)

Key:
Assay type in all cases: cell-based
Conditions in all cases: human
[1] = in vitro cytotoxicity bioassay, MCF-7
Protocol: (§1) These two experiments were conducted according to reference procedures.

[2] = in vitro cytotoxicity bioassay, MDA-MB-435
Protocol: as §1

[3] = in vitro cytotoxicity bioassay, PC-3
Protocol: as §1

[4] = in vitro cytotoxicity bioassay, HepG2
Protocol: as §1

[5] = MCF-7 cells (breast cancer cell line)
[6] = MDA-MB-435 cells (breast cancer cell line)
[7] = PC-3 cells (prostatic cancer cell line)
[8] = HepG2 cells (hepatoma cell line)

Measured: IC50

C=C1C2(CC(O)C(=O)OC2(C)C)CC(OC(C)=O)C2(C)C13OC14C(=O)OC(C)(C(=C)C12C(=O)OC4C)C3OC(C)=O (stereo not shown) [Compound 1, 2-hydroacetoxydehydroaustin]
> 50 µM: [1]; [5] | [2]; [6] | [3]; [7] | [4]; [8]

C=C1[C@]2(C)C(=O)[C@]3(O)[C@@H](C)OC(=O)[C@]13[C@@]1(C)CC[C@@]3(C=CC(=O)OC3(C)C)C(C)=C1[C@@H]2OC(C)=O [Compound 2, 11-acetoxyisoaustinone]
> 50 µM: [1]; [5] | [2]; [6] | [3]; [7] | [4]; [8]

C=C1[C@@]2(C)CC3=C(C)[C@]4(C=CC(=O)OC4(C)C)CC[C@]3(C)[C@@]13C(=O)O[C@H](C)[C@@]3(O)C2=O [Compound 3, isoaustinol]
> 50 µM: [1]; MCF-7 | [2]; MDA-MB-435 | [3]; PC-3 | [4]; HepG2

C=C1[C@@]23C(=O)O[C@H](C)[C@@]2(O)C(=O)O[C@]1(C)[C@@H](OC(C)=O)C1=C(C)[C@]2(C=CC(=O)OC2(C)C)CC[C@@]13C [Compound 4, austin]
> 50 µM: [1]; MCF-7 | [2]; MDA-MB-435 | [3]; PC-3 | [4]; HepG2

C=C1[C@@]23C(=O)O[C@H](C)[C@@]2(O)C(=O)O[C@]1(C)[C@@H](O)C1=C(C)[C@]2(C=CC(=O)OC2(C)C)CC[C@@]13C [Compound 5, austinol]
> 50 µM: [1]; [5] | [2]; [6] | [3]; [7] | [4]; [8]

C=C1[C@@]23C(=O)O[C@H](C)[C@]24O[C@@]2(C(=C)[C@]5(C=CC(=O)OC5(C)C)C[C@@H](OC(C)=O)[C@]32C)[C@H](OC(C)=O)[C@@]1(C)OC4=O [Compound 6, acetoxydehydroaustin]
> 50 µM: [1]; MCF-7 | [2]; MDA-MB-435 | [3]; PC-3 | [4]; HepG2

C=C1[C@@]23C(=O)O[C@H](C)[C@]24O[C@@]2(C(=C)[C@]5(C=CC(=O)OC5(C)C)CC[C@]32C)[C@H](OC(C)=O)[C@@]1(C)OC4=O [Compound 7, dehydroaustin]
> 50 µM: [1]; MCF-7 | [2]; MDA-MB-435 | [3]; PC-3 | [4]; HepG2

C=C1[C@@]23C(=O)O[C@H](C)[C@]24O[C@@]2(C(=C)[C@]5(C=CC(=O)OC5(C)C)CC[C@]32C)[C@H](O)[C@@]1(C)OC4=O [Compound 8, dehydroaustinol]
> 50 µM: [1]; MCF-7 | [2]; MDA-MB-435 | [3]; PC-3 | [4]; HepG2

C=C1[C@@]2(C)C[C@H]3[C@]4(C)C=CC(=O)OC(C)(C)[C@H]4CC[C@]3(C)[C@]1(C(=O)OC)C(=O)[C@@](C)(O)C2=O [Compound 9, preaustinoid A2]
> 50 µM: [1]; [5] | [2]; [6] | [3]; [7] | [4]; [8]

C=C1[C@@]23C(=O)O[C@H](C)[C@]24O[C@@]2(C(=C)[C@]5(CCC(=O)OC5(C)C)C[C@@H](OC(C)=O)[C@]32C)[C@H](OC(C)=O)[C@@]1(C)OC4=O [Compound 10, 1,2-dihydro-acetoxydehydroaustin B]
> 50 µM: [1]; [5] | [2]; [6] | [3]; [7] | [4]; [8]
